Results: ChEMBL document CHEMBL4765311, “Synthesis and biological evaluation of 4-(pyridin-4-oxy)-3-(3,3-difluorocyclobutyl)-pyrazole derivatives as novel potent transforming growth factor-β type 1 receptor inhibitors” (Eur J Med Chem, 2020)

Assays:
in vivo [1] = conditions: BALB/c, mouse, po, 10 mg/kg
in vivo [2] = conditions: BALB/c, mouse, po, 10 mg/kg; remark: listed apart in the source
in vivo [3] = conditions: BALB/c, mouse, iv, 1 mg/kg
in vivo [4] = conditions: BALB/c, mouse, iv, 1 mg/kg; remark: listed apart in the source
in vivo [5] = conditions: BALB/c, mouse, iv, 1 mg/kg; remark: listed apart in the source
in vivo [6] = conditions: BALB/c, mouse, po, 10 mg/kg; remark: listed apart in the source

half-life at 24 h (in vivo [1]): 66 min | Cmax at 24 h (in vivo [2]): 747 ng/mL | half-life at 24 h (in vivo [3]): 24 min | Vd at 24 h (in vivo [4]): 2.3 L/kg | clearance at 24 h (in vivo [5]): 86.7 mL/min/kg | bioavailability at 24 h (in vivo [6]): 45.6%
Compound: CC(C)(O)c1cc(Nc2cc(Oc3cn(C4CC4)nc3C3CCOCC3)ccn2)ccn1 [LY-3200882]
